As a reminder, the IC50 is the concentration that inhibits the measured activity by half.

The structures appear in SMILES notation.

This assay addresses T1, binding of KRAS^G12C to SOS1 (Homo sapiens, UniProt Q07889).
T1 construct: Tag1 (unspecified)
T1 sequence (Q07889 1-1333): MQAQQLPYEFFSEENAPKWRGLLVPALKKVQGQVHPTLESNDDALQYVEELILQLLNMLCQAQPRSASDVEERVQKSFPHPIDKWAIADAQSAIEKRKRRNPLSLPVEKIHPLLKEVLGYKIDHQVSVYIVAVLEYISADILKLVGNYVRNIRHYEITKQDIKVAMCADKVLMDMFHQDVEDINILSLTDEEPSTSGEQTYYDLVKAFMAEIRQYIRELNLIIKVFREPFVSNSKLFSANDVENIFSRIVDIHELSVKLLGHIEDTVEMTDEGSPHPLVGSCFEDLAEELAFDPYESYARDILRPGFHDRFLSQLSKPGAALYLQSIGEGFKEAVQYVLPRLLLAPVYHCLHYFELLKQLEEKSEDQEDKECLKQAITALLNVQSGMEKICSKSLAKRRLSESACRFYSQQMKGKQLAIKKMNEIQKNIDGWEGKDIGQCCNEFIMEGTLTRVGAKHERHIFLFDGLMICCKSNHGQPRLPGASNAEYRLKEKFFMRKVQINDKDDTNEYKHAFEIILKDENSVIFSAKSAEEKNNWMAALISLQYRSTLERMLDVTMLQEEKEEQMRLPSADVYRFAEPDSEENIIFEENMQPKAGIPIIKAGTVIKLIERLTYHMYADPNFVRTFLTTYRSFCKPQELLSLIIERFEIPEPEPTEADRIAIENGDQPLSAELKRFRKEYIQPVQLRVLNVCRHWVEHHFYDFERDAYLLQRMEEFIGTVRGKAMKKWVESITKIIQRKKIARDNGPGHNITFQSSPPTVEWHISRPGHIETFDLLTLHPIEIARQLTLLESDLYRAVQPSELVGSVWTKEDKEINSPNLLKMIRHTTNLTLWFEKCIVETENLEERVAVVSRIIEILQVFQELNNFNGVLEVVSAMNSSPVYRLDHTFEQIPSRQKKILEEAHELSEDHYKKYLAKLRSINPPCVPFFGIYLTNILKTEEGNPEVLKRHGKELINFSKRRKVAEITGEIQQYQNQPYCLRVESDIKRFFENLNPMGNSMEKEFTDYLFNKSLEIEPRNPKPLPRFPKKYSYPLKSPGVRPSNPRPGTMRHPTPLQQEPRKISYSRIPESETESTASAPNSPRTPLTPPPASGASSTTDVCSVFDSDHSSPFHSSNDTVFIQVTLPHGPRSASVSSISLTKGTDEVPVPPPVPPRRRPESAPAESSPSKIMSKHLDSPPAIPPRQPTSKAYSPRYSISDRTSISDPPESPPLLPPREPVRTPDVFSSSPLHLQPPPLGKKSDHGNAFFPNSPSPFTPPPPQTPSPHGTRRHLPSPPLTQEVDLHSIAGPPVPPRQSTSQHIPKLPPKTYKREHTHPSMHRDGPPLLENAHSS
The assay is described as follows: Inhibition of the binding of KRAS^G12C to SOS1. The conditions noted are these: Tag1-SOS1 / Tag2-KRAS^G12C, 2 h incubation at room temperature; read-out: IC50 (nM), inhibitory activity on the binding of KRAS^G12C to SOS1. On the procedure: • (1) Gradient dilution of the test compounds: 10 mM mother solution (dissolved in 100% DMSO) was added to a 384-well test plate, the final content of DMSO being 0.25%.
(2) 5 μL of Tag1-SOS1 solution was added to the test plate, and 5 μL of dilution buffer was added to the control group.
(3) 5 μL of Tag2-KRAS^G12C solution was added to the test plate.
(4) 10 μL of Anti-Tag1-Tb3+ and Anti-Tag2-XL665 detection solution were added to the test plate. The plate was centrifuged at 1000 rpm for 1 min and incubated at room temperature for 2 h.
(6) The IC50 values for the compounds were finally calculated using GraphPad Prism software, and a curve was fit and plotted.
The inhibitory activity of the compounds of the examples of the present invention on the binding of KRAS^G12C enzyme to SOS1 is shown in Table 1.
Turning to `COc1cc2nc(C)nc(N[C@H](C)c3cc(N)cc(C(F)(F)F)c3)c2cc1OCC1(C(C)OC)CC1` (single isomer, unassigned) [Example 65A], the IC50 was determined as 18 nM.

With `COc1cc2nc(C)nc(N[C@H](C)c3cc(N)cc(C(F)(F)F)c3)c2cc1OCC1(C(C)OC)CC1` (single isomer, unassigned) [Example 65B], the IC50 came to 7.3 nM.

As to `COc1cc2nc(C)nc(N[C@H](C)c3cccc(C(F)(F)C(C)(C)O)c3F)c2cc1OC[C@@H]1CCCN1C` [Example 1], the IC50 was 4.6 nM.

Turning to `COc1cc2nc(C)nc(N[C@H](C)c3cc(N)cc(C(F)(F)F)c3)c2cc1OC[C@@H]1CCCN1C` [Example 2], the IC50 was determined as 8.5 nM.

For the compound `COc1cc2nc(C)nc(N[C@H](C)c3cc(N)cc(C(F)(F)F)c3)c2cc1OC[C@@H]1CCC(=O)N1C` [Example 6, (S)-5-(((4-(((R)-1-(3-amino-5-(trifluoromethyl)phenyl)ethyl)amino)-7-methoxy-2-methylquinazolin-6-yl)oxy)methyl)-1-methylpyrrolin-2-one], the concentration for half-maximal inhibition (IC50) came to 13 nM.

On to `COc1cc2nc(C)nc(N[C@H](C)c3cc(N)cc(C(F)(F)F)c3)c2cc1OCCOC1CC1` [Example 7, (R)—N-(1-(3-amino-5-(trifluoromethyl)phenyl)ethyl)-6-(2-cyclopropoxy)-7-methoxy-2-meth ylquinazolin-4-amine], for which the 50% inhibitory concentration (IC50) turned out to be 3.3 nM.

In the case of `COc1cc2nc(C)nc(N[C@H](C)c3cc(N)cc(C(F)(F)F)c3)c2cc1OCCN(C)C1CC1` [Example 8], the IC50 amounted to 1.9 nM.

`COc1cc2nc(C)nc(N[C@H](C)c3cccc(C(F)(F)C(C)(C)O)c3F)c2cc1OCCN(C)CC1CCC1` [Example 9]: the half-inhibitory concentration (IC50) is 3.4 nM.

As to `COc1cc2nc(C)nc(N[C@H](C)c3cc(N)cc(C(F)(F)F)c3)c2cc1OCCN(C)CC1CCC1` [Example 10], the 50% inhibitory concentration (IC50) amounted to 2.9 nM.

As to `COc1cc2nc(C)nc(N[C@H](C)c3cc(N)cc(C(F)(F)F)c3)c2cc1OCC1(CN(C)C)CC1` [Example 11, (R)—N-(1-(3-amino-5-(trifluoromethyl)phenyl)ethyl)-6-((1-((dimethylamino)methyl)cyclopropyl)methoxy)-7-methoxy-2-methylauinazolin-4-amine], the IC50 turned out to be 3.6 nM.

As to `COc1cc2nc(C)nc(N[C@H](C)c3cccc(C(F)(F)C(C)(C)O)c3F)c2cc1OCC1(CN(C)C)CC1` [Example 12], the IC50 came to 8.3 nM.

On to `COc1cc2nc(C)nc(N[C@H](C)c3cc(N)cc(C(F)(F)F)c3)c2cc1OCCN(C)S(C)(=O)=O` [Example 13], for which the IC50 amounted to 2.5 nM.

Regarding `COc1cc2nc(C)nc(N[C@H](C)c3cc(N)cc(C(F)(F)F)c3)c2cc1OC[C@@H]1CCCN1C(C)=O` [Example 14], the IC50 is 16 nM.

`COc1cc2nc(C)nc(N[C@H](C)c3cc(N)cc(C(F)(F)F)c3)c2cc1OCC1(CN2CCOCC2)CC1` [Example 15, (R)—N-(1-(3-amino-5-(trifluoromethyl)phenyl)ethyl)-7-methoxy-2-methyl-6-((1-(morpholinylmethyl)cyclopropyl)methoxy)quinazolin-4-amine]: the concentration for half-maximal inhibition (IC50) was found to be 6.9 nM.

As for `COc1cc2nc(C)nc(N[C@H](C)c3cccc(C(F)(F)F)c3F)c2cc1OC[C@@H]1CCCN1C(=O)OC(C)(C)C` [Example 16], the IC50 is 1090 nM.

Regarding `COc1cc2nc(C)nc(N[C@H](C)c3cccc(C(F)(F)F)c3F)c2cc1OC[C@@H]1CCCN1` [Example 17, N—((R)-1-(2-Fluoro-3-(trifluoromethyl)phenyl)ethyl)-7-methoxy-2-methyl-6-(((S)-pyrrolin-2-yl)methoxy)quinazolin-4-amine], the IC50 was determined as 70 nM.

Take `COc1cc2nc(C)nc(N[C@H](C)c3cccc(C(F)(F)F)c3F)c2cc1OC[C@@H]1CCCN1C` [Example 18, N—((R)-1-(2-fluoro-3-(trifluoromethyl)phenyl)ethyl)-7-methoxy-2-methyl-6-(((S)-1-methylpyrrolin-2-yl)methoxy)quinazolin-4-amine]: the concentration for half-maximal inhibition (IC50) came to 36 nM.

In the case of `COc1cc2nc(C)nc(N[C@H](C)c3cccc(C(F)(F)C(C)(C)O)c3F)c2cc1OCCN(C)CC1CC(F)(F)C1` [Example 19], the IC50 amounted to 9.4 nM.

Consider `COc1cc2nc(C)nc(N[C@H](C)c3cccc(C(F)(F)F)c3F)c2cc1OC[C@@H]1CCCN1S(C)(=O)=O` [Example 20, N—((R)-1-(2-fluoro-3-(trifluoromethyl)phenyl)ethyl)-7-methoxy-2-methyl-6-(((S)-1-(methylsulfonyl)pyrrolidin-2-yl)methoxy)quinazolin-4-amine], for which the IC50 is 121 nM.

On to `COc1cc2nc(C)nc(N[C@H](C)c3cc(N)cc(C(F)(F)F)c3)c2cc1OCCN(C)CC1(F)CC1` [Example 21, (R)—N-(1-(3-amino-5-(trifluoromethyl)phenyl)ethyl)-6-(2-(((1-fluorocyclopropyl)methyl)(methyl)amino)ethoxy)-7-methoxy-2-methylquinazolin-4-amine], for which the 50% inhibitory concentration (IC50) was 4.7 nM.

With `COc1cc2nc(C)nc(N[C@H](C)c3cc(N)cc(C(F)(F)F)c3)c2cc1OCCN(C)CC1CC(F)(F)C1` [Example 22, (R)—N-(1-(3-amino-5-(trifluoromethyl)phenyl)ethyl)-6-(2-(((3,3-difluorocyclobutyl)methyl)(methyl)amino)ethoxy)-7-methoxy-2-methylquinazolin-4-amine], the IC50 was 7 nM.

Regarding `COc1cc2nc(C)nc(N[C@H](C)c3cccc(C(F)(F)C(C)(C)O)c3F)c2cc1OC[C@H]1CNCCO1` [Example 23], the concentration for half-maximal inhibition (IC50) came to 7.9 nM.

With `COc1cc2nc(C)nc(N[C@H](C)c3cccc(C(F)(F)C(C)(C)O)c3F)c2cc1OC[C@@H]1CNCCO1` [Example 24], the IC50 is 7.7 nM.

Take `COc1cc2nc(C)nc(N[C@H](C)c3cccc(C(F)(F)C(C)(C)O)c3F)c2cc1OC[C@@H]1CN(C)CCO1` [Example 25]: the IC50 was determined as 3.9 nM.

Consider `COc1cc2nc(C)nc(N[C@H](C)c3cccc(C(F)(F)C(C)(C)O)c3F)c2cc1OC[C@@H]1COCCO1` [Example 26, 1-(3-((R)-1-((6-(((S)-1,4-Dioxan-2-yl)methoxy)-7-methoxy-2-methylquinazolin-4-yl)amino)ethyl)-2-fluorophenyl)-1,1-difluoro-2-methylpropan-2-ol], for which the half-inhibitory concentration (IC50) is 9.2 nM.

`COc1cc2nc(C)nc(N[C@H](C)c3cccc(C(F)(F)C(C)(C)O)c3F)c2cc1OC[C@H]1COCCO1` [Example 27, 1-(3-((R)-1-((6-(((R)-1,4-Dioxan-2-yl)methoxy)-7-methoxy-2-methylquinazolin-4-yl)amino)ethyl)-2-fluorophenyl)-1,1-difluoro-2-methylpropan-2-ol]: the IC50 came out at 8.5 nM.

With `COc1cc2nc(C)nc(N[C@H](C)c3cc(N)cc(C(F)(F)F)c3)c2cc1OC[C@@H]1COCCO1` [Example 28, 6-(((S)-1,4-Dioxan-2-yl)methoxy)-N—((R)-1-(3-amino-5-(trifluoromethyl)phenyl)ethyl)-7-m ethoxy-2-methylquinazolin-4-amine], the half-maximal inhibitory concentration (IC50) came out at 7.9 nM.

Take `COc1cc2nc(C)nc(N[C@H](C)c3cccc(C(F)(F)C(C)(C)O)c3F)c2cc1OC[C@@H]1CN(S(C)(=O)=O)CCO1` [Example 29]: the IC50 came to 4.7 nM.

For `COc1cc2nc(C)nc(N[C@H](C)c3cc(N)cc(C(F)(F)F)c3)c2cc1OC[C@@H]1CCCN1S(C)(=O)=O` [Example 32, N—((R)-1-(3-amino-5-(trifluoromethyl)phenyl)ethyl)-7-methoxy-2-methyl-6-(((S)-1-(methylsulfonyl)pyrrolidin-2-yl)methoxy)quinazolin-4-amine], the IC50 turned out to be 31 nM.

The values are drawn from US20240336606A1 (Suzhou Zelgen Biopharmaceuticals Co., Ltd., priority 2020, published 2024).
